# In patent US7902373B2 (Pfizer Inc, priority 2006, dated 2011):
# Biological target: human recombinant H-PGDS (Homo sapiens, UniProt O60760)
# Assay: Fluorescence intensity h-PGDS TBA enzyme assay
# Format: biochemical
# Conditions: Examples up to 622 (and 3a, 3b)
# Sequence of human recombinant H-PGDS (O60760 whole entry): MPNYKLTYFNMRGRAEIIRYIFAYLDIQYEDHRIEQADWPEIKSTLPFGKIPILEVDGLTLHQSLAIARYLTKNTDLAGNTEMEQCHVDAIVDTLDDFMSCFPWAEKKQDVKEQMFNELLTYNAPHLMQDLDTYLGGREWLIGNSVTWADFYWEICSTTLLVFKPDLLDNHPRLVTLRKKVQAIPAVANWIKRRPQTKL
row,SMILES,IC50
1,"COc1cc(CN2CCC(NC(=O)c3ccc(-c4cccc(F)c4)nc3)CC2)cc(Cl)c1O [Example 257, N-[1-(3-Chloro-4-hydroxy-5-methoxybenzyl)piperidin-4-yl]-6-(3-fluorophenyl)nicotinamide]",0.58 nM
2,"O=C(NC1CCN(Cc2ccc(OCCO)cc2)CC1)c1ccc(-c2cccc(F)c2)nc1 [Example 258, 6-(3-Fluorophenyl)-N-{1-[4-(2-hydroxyethoxy)benzyl]piperidin-4-yl}nicotinamide]",1.24 nM
3,"CS(=O)(=O)c1ccc(CN2CCC(NC(=O)c3ccc(-c4cccc(F)c4)nc3)CC2)cc1 [Example 259, 6-(3-Fluorophenyl)-N-{1-[4-(methylsulfonyl)benzyl]piperidin-4-yl}nicotinamide]",1.68 nM
4,"COc1ccc(CN2CCC(NC(=O)c3ccc(-c4cccc(F)c4)nc3)CC2)c(Cl)c1OC [Example 260, N-[1-(2-Chloro-3,4-dimethoxybenzyl)piperidin-4-yl]-6-(3-fluorophenyl)nicotinamide]",0.578 nM
5,"O=C(NC1CCN(Cc2cc3ccccc3nn2)CC1)c1ccc(-c2cccc(F)c2)nc1 [Example 261, N-[1-(Cinnolin-3-ylmethyl)piperidin-4-yl]-6-(3-fluorophenyl)nicotinamide]",1.48 nM
6,"Cc1nc2ccccc2nc1CN1CCC(NC(=O)c2ccc(-c3cccc(F)c3)nc2)CC1 [Example 262, 6-(3-Fluorophenyl)-N-{1-[(3-methylquinoxalin-2-yl)methyl]piperidin-4-yl}nicotinamide]",3.86 nM
7,"O=C(NC1CCN(Cc2cnc3ccccc3n2)CC1)c1ccc(-c2cccc(F)c2)nc1 [Example 263, 6-(3-Fluorophenyl)-N-[1-(quinoxalin-2-ylmethyl)piperidin-4-yl]nicotinamide]",1.16 nM
8,"Cn1cc(CN2CCC(NC(=O)c3ccc(-c4cccc(F)c4)nc3)CC2)c(=O)n(C)c1=O [Example 264, N-{1-[(1,3-Dimethyl-2,4-dioxo-1,2,3,4-tetrahydropyrimidin-5-yl)methyl]piperidin-4-yl}-6-(3-fluorophenyl)nicotinamide]",2 nM
9,"COC(=O)c1ccc2c(CN3CCC(NC(=O)c4ccc(-c5cccc(F)c5)nc4)CC3)c[nH]c2c1 [Example 265, Methyl 3-{[4-({[6-(3-fluorophenyl)pyridin-3-yl]carbonyl}amino)piperidin-1-yl]methyl}-1H-indole-6-carboxylate]",4.29 nM
10,"Cc1nc(CN2CCC(NC(=O)c3ccc(-c4cccc(F)c4)nc3)CC2)c[nH]1 [Example 266, 6-(3-Fluorophenyl)-N-{1-[(2-methyl-1H-imidazol-4-yl)methyl]piperidin-4-yl}nicotinamide]",2.15 nM
11,"O=C(NC1CCN(Cc2cc(Cl)c(O)c(Cl)c2)CC1)c1ccc(-c2cccc(F)c2)nc1 [Example 267, N-[1-(3,5-Dichloro-4-hydroxybenzyl)piperidin-4-yl]-6-(3-fluorophenyl)nicotinamide]",0.994 nM
12,"CC(C)(CN1CCC(NC(=O)c2ccc(-c3cccc(F)c3)nc2)CC1)NC(=O)OC(C)(C)C [Example 268, tert-Butyl {2-[4-({[6-(3-fluorophenyl)pyridin-3-yl]carbonyl}amino)piperidin-1-yl]-1,1-dimethylethyl}carbamate]",8.08 nM
13,"CN(CCCN1CCC(NC(=O)c2ccc(-c3cccc(F)c3)nc2)CC1)C(=O)OC(C)(C)C [Example 269, tert-Butyl {3-[4-({[6-(3-fluorophenyl)pyridin-3-yl]carbonyl}amino)piperidin-1-yl]propyl}methylcarbamate]",3.5 nM
14,"Cc1c(CN2CCC(NC(=O)c3ccc(-c4cccc(F)c4)nc3)CC2)c(=O)n(C)c(=O)n1C [Example 270, 6-(3-Fluorophenyl)-N-{1-[(1,3,6-trimethyl-2,4-dioxo-1,2,3,4-tetrahydropyrimidin-5-yl)methyl]piperidin-4-yl}nicotinamide]",0.507 nM
15,"CCN(CC)C(=O)c1ccc(CN2CCC(NC(=O)c3ccc(-c4cccc(F)c4)nc3)CC2)cc1 [Example 271, N-(1-{4-[(Diethylamino)carbonyl]benzyl}piperidin-4-yl)-6-(3-fluorophenyl)nicotinamide]",5.62 nM
16,"O=C(NC1CCN(Cc2ccc[nH]c2=O)CC1)c1ccc(-c2cccc(F)c2)nc1 [Example 272, 6-(3-Fluorophenyl)-N-{1-[(2-oxo-1,2-dihydropyridin-3-yl)methyl]piperidin-4-yl}nicotinamide]",0.816 nM
17,"CN(C)CCCOc1ccccc1CN1CCC(NC(=O)c2ccc(-c3cccc(F)c3)nc2)CC1 [Example 273, N-(1-{2-[3-(Dimethylamino)propoxy]benzyl}piperidin-4-yl)-6-(3-fluorophenyl)nicotinamide]",1.11 nM
18,"CCn1nc(C)c(CN2CCC(NC(=O)c3ccc(-c4cccc(F)c4)nc3)CC2)c1C [Example 274, N-{1-[(1-Ethyl-3,5-dimethyl-1H-pyrazol-4-yl)methyl]piperidin-4-yl}-6-(3-fluorophenyl)nicotinamide]",2.57 nM
19,"O=C(NC1CCN(Cc2cnn(-c3ccc(F)cc3)c2)CC1)c1ccc(-c2cccc(F)c2)nc1 [Example 275, 6-(3-Fluorophenyl)-N-(1-{[1-(4-fluorophenyl)-1H-pyrazol-4-yl]methyl}piperidin-4-yl)nicotinamide]",5.49 nM
20,"CCn1cc(CN2CCC(NC(=O)c3ccc(-c4cccc(F)c4)nc3)CC2)c(C)n1 [Example 276, N-{1-[(1-Ethyl-3-methyl-1H-pyrazol-4-yl)methyl]piperidin-4-yl}-6-(3-fluorophenyl)nicotinamide]",0.743 nM
21,"CN(C)CC1(CN2CCC(NC(=O)c3ccc(-c4cccc(F)c4)nc3)CC2)CCCC1 [Example 277, N-[1-({1-[(Dimethylamino)methyl]cyclopentyl}methyl)piperidin-4-yl]-6-(3-fluorophenyl)nicotinamide]",5.72 nM
22,"CC(C)(C)OCCN1CCC(NC(=O)c2ccc(-c3cccc(F)c3)nc2)CC1 [Example 278, N-[1-(2-tert-Butoxyethyl)piperidin-4-yl]-6-(3-fluorophenyl)nicotinamide]",5.01 nM
23,"CC(C)(C)OC(=O)CCCN1CCC(NC(=O)c2ccc(-c3cccc(F)c3)nc2)CC1 [Example 279, tert-Butyl 4-[4-({[6-(3-fluorophenyl)pyridin-3-yl]carbonyl}amino)piperidin-1-yl]butanoate]",4.17 nM
24,"CS(=O)(=O)Nc1ccc(CN2CCC(NC(=O)c3ccc(-c4cccc(F)c4)nc3)CC2)cc1 [Example 280, 6-(3-Fluorophenyl)-N-(1-{4-[(methylsulfonyl)amino]benzyl}piperidin-4-yl)nicotinamide]",0.851 nM
25,"CC(C)(C)OC(=O)NCCCN1CCC(NC(=O)c2ccc(-c3cccc(F)c3)nc2)CC1 [Example 281, tert-Butyl {3-[4-({[6-(3-fluorophenyl)pyridin-3-yl]carbonyl}amino)piperidin-1-yl]propyl}carbamate]",1.8 nM
26,"CNS(=O)(=O)c1ccc(CN2CCC(NC(=O)c3ccc(-c4cccc(F)c4)nc3)CC2)cc1 [Example 282, 6-(3-Fluorophenyl)-N-(1-{4-[(methylamino)sulfonyl]benzyl}piperidin-4-yl)nicotinamide]",0.629 nM
27,"Cc1cccc(CN2CCC(NC(=O)c3ccc(-c4cccc(F)c4)nc3)CC2)n1 [Example 283, 6-(3-Fluorophenyl)-N-{1-[(6-methylpyridin-2-yl)methyl]piperidin-4-yl}nicotinamide]",0.5 nM
